# Experiments:
# Experiment in all cases: relative viability (nuclei count vs DMSO), 5 days (fraction); higher = more cells survive
# IPA-3 + Pemetrexed = compound: C1=CC=C2C(=C1)C=CC(=C2SSC3=C(C=CC4=CC=CC=C43)O)O [IPA-3] + Nc1nc2[nH]cc(CCc3ccc(C(=O)N[C@@H](CCC(=O)O)C(=O)O)cc3)c2c(=O)[nH]1 [Pemetrexed] (partner 0.2 µM)
# How it was run: (§1)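 Medians of duplicate plates are given as relative viability. That measure is the nuclei count in treated wells divided by the count in vehicle wells. Counts were taken on 4× images of lung cancer cell lines in 1536-well plates, 5 days after pin-tool dosing the day after seeding with one drug alone or a fixed anchor-drug dose plus five library-drug doses (not always all listed) in √10 steps.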
# Doramapimod + AZD7762 = compound: Cc1ccc(-n2nc(C(C)(C)C)cc2NC(=O)Nc2ccc(OCCN3CCOCC3)c3ccccc23)cc1 [Doramapimod] + NC(=O)Nc1cc(-c2cccc(F)c2)sc1C(=O)N[C@H]1CCCNC1 [AZD7762] (partner 0.2 µM)
# How it was run: as §1
# RAF265 + Foretinib = compound: Cn1c(Nc2ccc(C(F)(F)F)cc2)nc2cc(Oc3ccnc(-c4ncc(C(F)(F)F)[nH]4)c3)ccc21 [RAF265] + COc1cc2c(Oc3ccc(NC(=O)C4(C(=O)Nc5ccc(F)cc5)CC4)cc3F)ccnc2cc1OCCCN1CCOCC1 [Foretinib] (partner 0.25 µM)
# How it was run: as §1
# RAF265 + Dasatinib = compound: Cn1c(Nc2ccc(C(F)(F)F)cc2)nc2cc(Oc3ccnc(-c4ncc(C(F)(F)F)[nH]4)c3)ccc21 [RAF265] + Cc1nc(Nc2ncc(C(=O)Nc3c(C)cccc3Cl)s2)cc(N2CCN(CCO)CC2)n1 [Dasatinib] (partner 0.075 µM)
# How it was run: as §1
Cell Line,relative viability (IPA-3 + Pemetrexed; first compound 0.2 µM),relative viability (IPA-3 + Pemetrexed; first compound 0.6325 µM),relative viability (IPA-3 + Pemetrexed; first compound 2 µM),relative viability (IPA-3 + Pemetrexed; first compound 6.325 µM),relative viability (IPA-3 + Pemetrexed; first compound 20 µM),relative viability (Doramapimod + AZD7762; first compound 0.02 µM),relative viability (Doramapimod + AZD7762; first compound 0.06325 µM),relative viability (Doramapimod + AZD7762; first compound 0.2 µM),relative viability (Doramapimod + AZD7762; first compound 0.6325 µM),relative viability (Doramapimod + AZD7762; first compound 2 µM),relative viability (RAF265 + Foretinib; first compound 0.01 µM),relative viability (RAF265 + Foretinib; first compound 0.03162 µM),relative viability (RAF265 + Foretinib; first compound 0.1 µM),relative viability (RAF265 + Foretinib; first compound 0.3162 µM),relative viability (RAF265 + Foretinib; first compound 1 µM),relative viability (RAF265 + Dasatinib; first compound 0.01 µM),relative viability (RAF265 + Dasatinib; first compound 0.03162 µM),relative viability (RAF265 + Dasatinib; first compound 0.1 µM),relative viability (RAF265 + Dasatinib; first compound 0.3162 µM),relative viability (RAF265 + Dasatinib; first compound 1 µM)
HARA,0.298,0.227,0.249,0.229,0.24,0.341,0.235,0.397,0.536,0.213,0.573,0.777,0.931,0.53,0.38,0.298,0.385,0.256,0.184,0.137
LCLC-97TM1,0.165,0.184,0.164,0.148,0.179,0.323,0.328,0.289,0.168,0.304,0.993,0.811,0.967,0.811,0.448,0.826,0.826,0.66,0.852,0.442
LC-2-ad,0.294,0.28,0.285,0.281,0.307,0.826,0.916,0.874,0.988,0.84,1.22,0.921,0.94,0.863,0.645,0.57,0.691,0.386,0.27,0.196
EKVX,0.407,0.439,0.429,0.426,0.582,0.679,0.676,0.717,0.635,0.678,1.21,0.676,0.963,0.419,0.715,0.598,0.606,0.756,–,0.382
HCC-827,0.264,0.261,0.241,0.254,0.254,0.281,0.3,0.195,0.588,0.116,0.986,0.971,1.06,–,0.729,0.277,0.259,0.422,–,0.234
NCI-H650,1.22,0.873,1.03,0.852,1.15,0.88,1.11,0.941,1.16,1.02,1.1,0.965,0.974,0.814,0.484,0.464,0.429,0.369,0.265,0.259
CAL-12T,1.21,0.983,0.942,1.26,1.24,0.675,0.765,0.696,0.596,0.535,1.26,1.12,1.01,0.924,0.746,0.313,0.312,0.191,0.196,0.103
EPLC-272H,0.415,0.309,0.337,0.355,0.371,0.209,0.209,0.254,–,0.22,0.721,0.39,0.506,0.208,0.135,0.34,0.303,0.238,0.234,0.139
A-427,1.06,1.01,0.998,0.903,0.982,0.77,0.732,0.743,–,0.561,1.12,0.962,0.846,0.26,0.204,0.641,0.615,0.685,0.469,0.131
NCI-H647,0.164,0.162,0.209,0.134,0.089,0.602,0.616,0.461,0.485,0.454,1.14,0.867,0.957,0.979,0.659,0.197,0.132,0.242,0.0861,0.0896
NCI-H1975,0.318,0.288,0.305,0.347,0.274,0.863,0.874,0.871,0.665,0.787,0.88,0.74,0.639,0.383,0.333,0.335,0.226,0.237,0.177,0.124
NCI-H358,0.168,0.172,0.159,0.162,0.158,0.486,0.522,0.438,0.363,0.38,0.623,0.641,0.448,0.239,0.215,0.179,0.217,0.16,0.171,0.0873
PC-3 [JPC-3],1.12,1.23,1.18,1.03,1.03,1.12,0.912,0.882,0.899,0.786,1.04,1.07,1.12,–,0.595,0.985,0.908,1,–,0.696
NCI-H1792,1.33,0.486,–,0.587,0.737,0.43,0.89,0.842,0.618,0.434,–,–,–,–,–,0.848,0.83,0.759,0.575,0.293
NCI-H596,0.592,0.497,0.469,0.552,0.435,1.27,1.08,1.13,1.31,1.1,0.739,0.929,0.866,0.691,0.626,0.63,0.76,0.582,0.612,0.366
RERF-LC-KJ,0.487,0.46,0.482,0.489,0.566,0.897,1.15,0.961,0.703,0.889,0.867,0.85,0.891,0.759,0.774,0.822,0.735,0.658,0.456,0.4

Cell Line,relative viability (IPA-3 + Pemetrexed; first compound 0.2 µM),relative viability (IPA-3 + Pemetrexed; first compound 0.6325 µM),relative viability (IPA-3 + Pemetrexed; first compound 2 µM),relative viability (IPA-3 + Pemetrexed; first compound 6.325 µM),relative viability (IPA-3 + Pemetrexed; first compound 20 µM),relative viability (Doramapimod + AZD7762; first compound 0.02 µM),relative viability (Doramapimod + AZD7762; first compound 0.06325 µM),relative viability (Doramapimod + AZD7762; first compound 0.2 µM),relative viability (Doramapimod + AZD7762; first compound 0.6325 µM),relative viability (Doramapimod + AZD7762; first compound 2 µM),relative viability (RAF265 + Foretinib; first compound 0.01 µM),relative viability (RAF265 + Foretinib; first compound 0.03162 µM),relative viability (RAF265 + Foretinib; first compound 0.1 µM),relative viability (RAF265 + Foretinib; first compound 0.3162 µM),relative viability (RAF265 + Foretinib; first compound 1 µM),relative viability (RAF265 + Dasatinib; first compound 0.01 µM),relative viability (RAF265 + Dasatinib; first compound 0.03162 µM),relative viability (RAF265 + Dasatinib; first compound 0.1 µM),relative viability (RAF265 + Dasatinib; first compound 0.3162 µM),relative viability (RAF265 + Dasatinib; first compound 1 µM)
NCI-H322M,0.594,0.624,0.681,0.669,0.573,0.564,0.593,0.52,0.484,0.687,1.09,1.03,0.781,0.402,0.275,0.267,0.278,0.229,0.303,0.213
NCI-H1993,0.652,0.602,0.57,0.531,0.516,0.751,0.675,0.608,0.781,0.557,0.86,0.729,0.783,0.777,0.575,0.618,0.497,0.545,0.619,0.528
NCI-H1437,0.298,0.294,0.32,0.323,0.334,1.13,1.16,1.23,1.05,1.08,1.22,1.28,1.28,1.33,1.31,0.451,0.416,0.403,0.397,0.395
NCI-H838,0.266,0.236,0.258,0.271,0.322,0.869,0.962,0.958,0.902,0.92,1.06,1.07,1.01,1.07,0.951,0.332,0.3,0.288,0.256,0.256
NCI-H1666,0.842,0.853,0.874,0.796,0.83,0.9,0.943,1.01,0.975,0.851,1.11,0.936,0.985,1.01,0.81,0.868,0.814,0.768,0.87,0.781
NCI-H1944,0.687,0.549,0.551,0.721,0.577,0.468,0.62,0.341,0.647,0.312,0.939,0.913,0.906,0.762,0.461,0.284,0.277,0.225,0.178,0.19
NCI-H1755,0.621,0.44,0.495,0.399,0.398,0.428,0.5,0.379,0.477,0.412,0.951,0.884,0.926,0.727,0.568,0.404,0.427,0.33,0.294,0.195
NCI-H23,0.694,0.628,0.764,0.644,0.68,0.247,0.221,0.363,0.354,0.143,0.741,0.847,0.739,0.724,0.442,0.716,0.75,0.622,0.48,0.325
201T,0.311,0.349,0.373,0.295,0.338,0.516,0.562,0.447,0.504,0.341,1.1,1.1,1.09,1.21,0.945,0.575,0.624,0.532,0.495,0.458
NCI-H1734,0.412,0.46,0.436,0.365,0.383,0.418,0.608,0.498,0.75,0.434,0.858,0.701,0.627,0.647,0.454,0.482,0.373,0.369,0.358,0.266
NCI-H1355,1.13,1.08,1,1.06,0.945,0.663,0.82,0.853,0.767,0.743,0.65,0.923,0.823,0.464,0.38,0.804,0.709,0.545,0.601,0.264
NCI-H1915,0.559,0.463,0.497,0.461,0.633,0.694,0.734,0.771,0.82,0.664,1.09,1.05,0.869,0.348,0.306,0.342,0.332,0.213,0.151,0.137
BEN,0.751,0.843,0.852,0.814,0.774,0.58,0.724,0.72,0.597,0.681,0.665,0.776,0.701,0.664,0.568,0.28,0.323,0.379,0.358,0.356
NCI-H3122,0.189,0.197,0.192,0.207,0.211,1.11,1.09,1.05,1,1.12,0.963,1,1,0.953,0.635,0.463,0.937,0.904,0.669,0.521
HOP-62,0.333,0.315,0.345,0.313,0.328,0.629,0.676,0.585,0.647,0.651,1.14,0.979,0.973,1.04,0.852,0.747,0.618,0.647,0.691,0.504
HCC-366,0.192,0.147,0.21,0.169,0.178,0.387,0.271,0.33,0.34,0.213,0.99,0.841,0.9,0.996,0.914,0.724,0.627,0.664,0.583,0.511

# Source: the supplement of paper PMC10307832
